Format in all cases: cell-based
Data set [1] concerns human lymphocytes. In words: lymphocyte response to varied culture medium components. As for the experimental part: Culture medium suitable for the growth of human lymphocytes is prepared as follows: To 50 ml of medium buffer 72 mg glucose is added, 1 ml amino acid supplement, 1 ml of a 16.5 mg/ml pyruvate: 2.64 mg/ml cysteine solution, 1 ml of a 1.4 mg/ml choline chloride; 1.8 mg/ml inositol solution, 1 ml of the above indicated vitamin supplement, and 1 ml of a 135 μg/ml adenine solution. The pH is adjusted with dilute NaOH to 7.6. Supplements of the following are then added: 1 ml of the antibiotic supplement, 0.5 ml of a 22.2 mg/ml calcium chloride solution, 0.5 ml of a 24 mg/ml magnesium sulfate solution, 1 ml of a solution of 0.278 mg/ml ferrous sulfate in 0.149 mg/ml EDTA. Deionized water is added to a final volume of 100 ml and the medium is filtered through Nalgene membrane filter units for sterilization. After filtration 0.2 ml of a 1 mg/ml sterile solution of phytohemagglutinin (PHA) is added to each 100 ml of media. PHA is obtained from Sigma Chemical Co. in 5 mg quantities and is diluted with sterile, deionized water.
Accordingly, a culture medium suitable for determining the growth or other responses of lymphocytes comprises a serum-free, buffered (pH 7.6) solution in deionized water comprises per liter of solution the following components as described in Table 1:
The components of the culture medium of Table 1 can be varied. In general, effective amounts of the components are used and can vary widely for the various growth assays of the invention and for individual patients. An effective amount of a component, as used herein, is an amount which will obtain a desired response from the patient. […] For most patients and assays the following ranges of components are satisfactory. The precise amounts of the components to provide an effective response can be determined by simple experimentation with the culture medium.
The following is an example of a lymphocyte assay: Previously sterilized 96 well microtiter plates (Corning) are used in this assay procedure. 0.2 milliliters of the culture medium is added to each well. Where necessary, variable supplements up to 10 μl may be added to each tube, or a smaller volume of an appropriately higher concentration of the medium can be added to the tubes and supplements then added to make a final volume of 0.2 ml. The assay is then inoculated with 10 μl of the diluted lymphocyte suspension (22,000 lymphocytes).
Incubation. The plates are incubated for 4 days at 37° C. in a 5% carbon dioxide atmosphere saturated with water vapor. […]
Harvesting. […] The filter papers are dried for 5 minutes in a drying oven at 120° C. and then counted on a Matrix 96 Beta Counter (Packard).

The subject of data set [2] is human peripheral blood lymphocytes. In words: lymphocyte growth inhibition assay ([3H]-thymidine incorporation) in chemically defined medium. As to conditions: for IC50: Homo sapiens, Lymphocyte, read-out: Amount Required to Inhibit Growth by 50%. As to the method: The medium is also described in the specification above. Various concentrations of amino acids can be used in the medium to determine the effect on growth or growth inhibition.
Human peripheral blood was collected from a group of patients in the clinic. […] Experiments were conducted in 96 well microtite plates. Triplicate samples were run in all experiments. […] For reversal of toxicity CoQ10 was added at a concentration of 0.5 μg/ml, and the patient's own plasma at a concentration of 0.1%. All chemicals were obtained from Sigma Chemical Corporation. […] Cells were then pulsed with 10 μl [^3H]-thymidine (0.29×10^-6M final concentration; specific activity […]). Twenty-four hours later, cells were harvested using an Inotech Cell Harvester. Radioactive incorporation was measured using a Packard Matrix 96 Beta Counter.
(Dividing cells build labelled thymidine or BrdU into new DNA.)

Data set [3] has the same test system. In words: reversal of Lipitor (statin) toxicity in the lymphocyte culture assay. As to conditions: Lipitor present; CoQ10 0.5 μg/ml, patient's own plasma 0.1%; all subjects. The source says:
The present invention also provides a composition comprised in the plasma that has the ability to ameliorate the toxicity of metabolic inhibitors such as the statins. […] It is contemplated that the plasma composition may comprise at least one peptide, a polypeptide, a protein or a small molecule which is associated with or bound to at least one peptide, polypeptide, or protein. The plasma composition may also comprise a lipid moiety, and/or a carbohydrate moiety and/or a nucleic acid component. As the plasma composition is heat-labile, it is contemplated to comprise at least one heat-labile peptide, polypeptide, or protein that may additionally be associated with or bound to at least one small molecule which may be a lipid moiety, and/or a carbohydrate moiety and/or a nucleic acid moiety.
The medium used in this study was the same as described previously (See U.S. Pat. No. 4,499,064, herein expressly incorporated by reference) except that the concentration the amino acids used was increased five fold. The medium is also described in the specification above. […]
Human peripheral blood was collected from a group of patients in the clinic. Lymphocytes were isolated as described (Shive, 1986), counted in a Coulter Counter, and inoculated into the medium at a concentration of 110,000 cells per ml. […] Radioactive incorporation was measured using a Packard Matrix 96 Beta Counter. […]

The mark [4] stands for this setting: patients' lymphocytes, 4 days incubation then 24 h [3H]-thymidine pulse.
The mark [5] stands for this setting: at concentrations of up to 0.2 mg/ml.

Values after ≈ are worked out from the molar mass of the structure shown. Where two headings read alike, the source gives them in different places.

Regarding `Nc1ncnc2nc[nH]c12` [Adenine], the “concentration in culture medium that is toxic to lymphocytes” value in data set [1] (medium of Table 1, component varied) is 135 µg/mL.

Regarding `[Al]` [Aluminum], the “Amount Required to Inhibit Growth by 50%” value in data set [2] (setting [4]) turned out to be 0.005 mg/mL.

Consider `Cn1c(=O)c2c(ncn2C)n(C)c1=O` [Caffeine], for which the IC50 in data set [2] (setting [4]) is 77.6 µg/mL (≈ 400 µM).

With `COC1=C(OC)C(=O)C(C/C=C(\C)CC/C=C(\C)CC/C=C(\C)CC/C=C(\C)CC/C=C(\C)CC/C=C(\C)CC/C=C(\C)CC/C=C(\C)CC/C=C(\C)CCC=C(C)C)=C(C)C1=O` [CoQ10, Co enzyme Q10], in data set [3], the “reversal of Lipitor toxicity” value is “offers some protection, but it is not totally effective alone”.

For `CN1C(=O)CN=C(c2ccccc2)c2cc(Cl)ccc21` [Diazepam], the IC50 in data set [2] came out at 20 µg/mL (≈ 70.2 µM).

Take `CCO` [Ethanol]: in data set [2] (setting [4]), the IC50 is 10000 µg/mL (≈ 217000 µM).

In the case of `O[C@H]1[C@H](O)[C@@H](O)[C@H](O)[C@@H](O)[C@H]1O` [Inositol], in data set [1] (Homo sapiens, Lymphocyte, inositol 0.018 mg/l in medium, read-out: lymphocyte response, % of maximal response), the Emax at 0.018 µg/mL is approximately 70%. In addition, the Emax at 0.18 µg/mL in data set [1] (Homo sapiens, Lymphocyte, inositol 0.18 mg/l in medium, read-out: lymphocyte response, % of maximal response) is 90 to 100%.

For the compound `NNC(=O)c1ccncc1` [Isoniazid], the IC50 in data set [2] (setting [4]) is 548 µg/mL (≈ 4000 µM).

For the compound `CC(C)c1c(C(=O)Nc2ccccc2)c(-c2ccccc2)c(-c2ccc(F)cc2)n1CC[C@@H](O)C[C@@H](O)CC(=O)O` [Lipitor, Atorvastatin], the IC50 in data set [2] (setting [4]) was less than 0.1 µg/mL.

With `CN(Cc1cnc2nc(N)nc(N)c2n1)c1ccc(C(=O)N[C@@H](CCC(=O)O)C(=O)O)cc1` [Methothrexate], the “Amount Required to Inhibit Growth by 50%” value in data set [2] (setting [4]) was less than 0.00002 mg/mL.

On to `CC[C@H](C)C(=O)O[C@H]1C[C@@H](C)C=C2C=C[C@H](C)[C@H](CC[C@@H]3C[C@@H](O)CC(=O)O3)[C@H]21` [Mevacor, Lovastatin], for which, in data set [2] (setting [4]), the IC50 was less than 0.1 µg/mL.

As to `N[C@@H](CCC(=O)O)C(=O)[O-].[Na+]` [Monosodium Glutamate], in data set [2], the IC50 is 7500 µg/mL.

With `CC[C@H](C)C(=O)O[C@H]1C[C@H](O)C=C2C=C[C@H](C)[C@H](CC[C@@H](O)C[C@@H](O)CC(=O)O)[C@H]21` [Pravachol, Pravastatin sodium], the IC50 in data set [2] (setting [4]) is less than 0.1 µg/mL.

In the case of `CC(=O)C(=O)O` [Pyruvate], in data set [1] (human, 4 days, pH 7.6), the “concentration in culture medium that is toxic to lymphocytes” value was 1650 µg/mL.

With `CC1=C(/C=C/C(C)=C/C=C/C(C)=C/CO)C(C)(C)CCC1` [Retanol], the IC50 in data set [2] (setting [4]) was 0.5 µg/mL (≈ 1.75 µM).

As for `O=C(O)c1ccccc1O` [Salicylate], in data set [2] (setting [4]), the “Amount Required to Inhibit Growth by 50%” value was 0.005 mg/mL.

In the case of `Cn1c(=O)c2[nH]cnc2n(C)c1=O` [Theophyline], in data set [2] (setting [4]), the IC50 amounted to 30 µg/mL (≈ 167 µM).

As for `CCCC(CCC)C(=O)O` [Valproic Acid (Depakote), Valproic Acid], the IC50 in data set [2] (patients' lymphocytes, 4 days incubation then 24 h [3H]-thymidine pulse, unit printed μg/ml) lay in the range of 0.4 to 1.2 µg/mL (≈ 2.77 to 8.32 µM).

As to `CCC(C)(C)C(=O)O[C@H]1C[C@@H](C)C=C2C=C[C@H](C)[C@H](CC[C@@H]3C[C@@H](O)CC(=O)O3)[C@H]21` [Zocor, Simvastatin], the IC50 in data set [2] (setting [4]) is less than 0.1 µg/mL.

`N[C@H]1C(O)O[C@H](CO)[C@@H](O)[C@@H]1O` (stereo partly drawn) [glucoseamine]: in data set [2] (setting [5]), the toxicity in lymphocytes entry is on record as “did not show toxicity”.

As for `NCC1(CC(=O)O)CCCCC1` [neuronton], the toxicity in lymphocytes result in data set [2] (setting [5]) is “did not show toxicity”.

As for `CCC1(c2ccccc2)C(=O)NC(=O)NC1=O` [phenobarbitol], in data set [2], the toxicity in lymphocytes result is recorded as “did not show toxicity”.

Consider `Cc1nnc2n1-c1ccc(Cl)cc1C(c1ccccc1Cl)=NC2` [triazolam], for which the toxicity in lymphocytes entry in data set [2] was “did not show toxicity”.

These data come from patent US6723527B2, “Methods for determining toxicity reversing agents” (Board of Regents, The University of Texas System, priority 2001, dated 2004).
